Test results: patent publication US12441687B2, “Drp1-filamin complex formation inhibitors” (RDISCOVERY, LLC, priority 2019, dated 2025)

Tests used:
[1] = molecular target: Drp1-filamin complex (Homo sapiens, UniProt O00429+P21333); conditions: Non Patent Literature 1; cited from earlier work
[2] = test system: model mice of type 1/2 diabetes (STZ); assay: Blood sugar level in streptozotocin model mice of type 1/2 diabetes; type: in vivo; conditions: STZ 200 mg/kg mice, osmotic pump 5,000 μg/kg from 14th day, FIG. 6
Description: Effects of cilnidipine on intractable disease were examined. In this Exemplary Experiment, cilnidipine was administered to model mice of type 1/2 diabetes, and the blood sugar level was measured over time. The model mice of type 1/2 diabetes employed were mice intraperitoneally administered 200 mg/kg of streptozotocin (STZ) on the 42nd day after birth. Also mouse without streptozotocin administration were prepared for comparison.
Blood sugar levels of mice in the individual groups were measured over time after the start of experiment. On the 14th day after the start of experiment, an osmotic pump containing 5,000 μg/kg of cilnidipine or the solvent only was implanted into each mouse in each group, for prolonged administration.

[3] = test system: hypertensive and hyperglycemic patients; assay: Retrospective analysis of blood HbA1c in hypertensive and hyperglycemic patients; type: in vivo, human; conditions: patients administered cilnidipine compared with patients administered amlodipine, FIG. 7
Description: Effects of cilnidipine on intractable disease were examined. The results shown in this Exemplary Experiment were obtained from retrospective analyses on patients in Kyushu University Hospital. In this Exemplary Experiment, percentages of blood HbA1c in hypertensive and hyperglycemic patients administered amlodipine, and in hypertensive and hyperglycemic patients administered cilnidipine, were evaluated.

[4] = test system: SOD1-G93A mice (ALS model); assay: Survival of ALS model mice (SOD1-G93A) with cilnidipine administration; type: in vivo; conditions: osmotic pump 5,000 μg/kg intraperitoneally implanted after onset of ALS, 28 days, FIG. 4(b)
Description: Effects of cilnidipine on intractable disease were examined. In this Exemplary Experiment, cilnidipine was administered to model mice of amyotrophic lateral sclerosis (ALS), and survival rate was examined. The ALS model mice employed were SOD1-G93A mice.
FIG. 4(a) is a drawing that illustrates an experiment schedule. An osmotic pump containing 5,000 μg/kg of cilnidipine was intraperitoneally implanted into each model mouse after onset of ALS, the drug was administered continuously over 28 days, and the survival rate was measured.

[5] = test system: H9c2 cell overexpressing wild type filamin A gene fused with mCherry tag; assay: Mitochondrial division promoted by overexpressed wild type filamin A in H9c2 cells; type: cell-based, murine; conditions: Exemplary Experiment 9, 1 μM, 24 hours, FIG. 9(b)
Description: (§1) An expression vector of wild type filamin A gene fused with mCherry tag, or, an expression vector of A1545T mutant of filamin A gene fused with mCherry tag was transduced into H9c2 cell, which is a murine heart striated muscle cell line, and allowed to overexpress. Also a group, having an expression vector of mCherry transduced and allowed to overexpress therein, was prepared for comparison.
(§2) The cells were cultured for 24 hours, cilnidipine or NS4-238 was added to the culture medium while adjusting the final concentration to 1 μM, and the cells were further cultured for 24 hours. Also a group having DMSO added thereto in place of the drugs was prepared for comparison.
(§3) The cells were then stained in the same way as described in Exemplary Experiment 1 using MitoTracker Green FM (from Thermo Fischer Scientific Inc.). The cells were observed under a fluorescent microscope, and the shape of mitochondria was quantified by image analysis.

[6] = test system: calcium channel; assay: Calcium channel blocking: intracellular calcium increase after potassium chloride stimulation in Neuro-2a cells (Fura 2-AM); type: cell-based, murine
Description: Effect of blocking the calcium channel by the cilnidipine derivative, synthesized in Exemplary Experiment 7, was examined. More specifically, first, Neuro-2a cells which belong to a cell line of murine neuroblastoma were cultured in serum-free culture media, and Fura 2-AM (from Dojindo Laboratories) as a calcium ion probe was added to the culture media, so as to transduce it into the cells.
The culture media were then replaced with HEPES buffered nutrient solution (pH7.4), and each of cilnidipine, and the individual compounds namely NS4-019, NS4-021, NS4-043, NS4-238, and NS4-700, synthesized in Exemplary Experiment 7, was added to the culture media so as to adjust the final concentrations to 0, 1, 10, 100, and 1,000 nM, and the culture media were incubated for 30 minutes.
Depolarizing stimulation was then given by adding potassium chloride solution (to a final concentration of 60 mM), and inflow of calcium ions into the cells was observed under a fluorescent microscope.
FIG. 12 is a graph that illustrates increase of intracellular calcium ion concentration after potassium chloride stimulation. In FIG. 12, “CIL” represents results obtained from the cells having cilnidipine added thereto, “NS4-238” represents results obtained from the cells having NS4-238 added thereto, and “**” represents presence of significant difference at p<0.01. […]

[7] = test system: H9c2 cell overexpressing A1545T mutant of filamin A gene fused with mCherry tag; assay: Mitochondrial division promoted by overexpressed A1545T mutant of filamin A in H9c2 cells; type: cell-based, murine; conditions: Exemplary Experiment 9, 1 μM, 24 hours, FIG. 9(b)
From the text: A disease called filamin cardiomyopathy has been known to involve A1539T mutation (substitution of adenine at position 1539 to thymine) on filamin-C gene. Then influence of A1545T mutant of filamin A gene, similar to A1539T mutant of filamin-C gene, on the shape of mitochondria of myocardial cell was examined.
as §1, §2, §3

[8] = test system: model mice of inflammatory bowel disease (DSS); assay: Survival of DSS-induced inflammatory bowel disease model mice; type: in vivo; conditions: osmotic pump 25,000 μg/kg, 17 days, 3% DSS, FIG. 5(b)
Description: Effects of cilnidipine on intractable disease were examined. In this Exemplary Experiment, cilnidipine was administered to model mice of inflammatory bowel disease, and survival rate was examined. The model mice of inflammatory bowel disease employed were mice on which inflammatory bowel disease is inducible by administrating dextran sulfate (DSS).
FIG. 5(a) is a drawing that illustrates an experiment schedule. From three days before the administrating DSS started, an osmotic pump containing 25,000 μg/kg of cilnidipine was intraperitoneally implanted into each mouse, the drug was administered continuously over 17 days, and the survival rate was measured.
From the first day (Day 0) the cilnidipine administration started, the mice were fed tap water containing 3% DSS as a drinking water for seven days. Over a period between Day 7 after the start of cilnidipine administration to Day 14, the drinking water was reverted to ordinary tap water. Also a control group was prepared, in which the mice were fed a solvent only in place of cilnidipine.

[9] = test system: myocardial cells from neonatal rat; assay: Aging of myocardial cell (p53 accumulation) under hypoxic-reoxygenation stimulation; type: cell-based; conditions: Exemplary Experiment 10, 1 μM, hypoxic (1%) 18 hours then normoxic (21%) 18 hours, FIG. 10
Description: How the cilnidipine derivatives, synthesized in Exemplary Experiment 7, can affect aging of myocardial cell was examined. Aging of myocardial cell was evaluated on the basis of accumulation of p53 protein. More specifically, each of cilnidipine, and the individual compounds namely NS4-019, NS4-021 and NS4-043, synthesized in Exemplary Experiment 7, was added to a culture medium of the myocardial cells from neonatal rat, so as to adjust the final concentration to 1 μM, and the cells were incubated for one hour. The cells were then subjected to hypoxic-reoxygenation stimulation, by cultivation under hypoxic (1%) environment for 18 hours, followed by cultivation under normoxic (21%) environment for 18 hours. The cells in each culture were then fixed with 4% paraformaldehyde, and immunostained with anti-p53 antibody and anti-α-actinin antibody. α-Actinin is a marker of myocardial cell. The cells in each culture were observed under a fluorescent microscope, and percentage of p53 accumulating cells relative to the α-actinin-positive cells was determined.

[10] = test system: myocardial cells from the neonatal rat; assay: Evaluation of degree of mitochondrial division under hypoxia (MitoTracker Green FM, image analysis); type: cell-based
Description: A system for quantitatively evaluating degree of intracellular mitochondrial division was built. More specifically, myocardial cells obtained from a neonatal rat were cultured under normoxia (20%) or under hypoxia (1%) for 16 hours. The cells were then stained with a fluorescent dye (MitoTracker Green FM, from Thermo Fisher Scientific Inc.) that selectively stains mitochondria. The cells were observed under a fluorescent microscope, and the shape of mitochondria was quantified by image analysis.
FIG. 2(c) is a graph that illustrates length of mitochondria from the myocardial cells of a neonatal rat cultured under normoxia or hypoxia. In FIG. 2(c), “Normoxia” represents results obtained from culture under the normal oxygen concentration, and “Hypoxia” represents results obtained from culture under the low oxygen concentration. […]
Each of the aforementioned compounds was added to a culture medium of the myocardial cells from the neonatal rat, so as to adjust the final concentration to 1 μM, the cells were incubated for one hour, and further cultured under hypoxic environment for 16 hours. The cells were then stained in the same way as described in Exemplary Experiment 1 using MitoTracker Green FM (from Thermo Fischer Scientific Inc.), observed under a fluorescent microscope, and the shape of mitochondria was quantified. […]

Drp1-filamin complex, sequence (O00429 whole entry): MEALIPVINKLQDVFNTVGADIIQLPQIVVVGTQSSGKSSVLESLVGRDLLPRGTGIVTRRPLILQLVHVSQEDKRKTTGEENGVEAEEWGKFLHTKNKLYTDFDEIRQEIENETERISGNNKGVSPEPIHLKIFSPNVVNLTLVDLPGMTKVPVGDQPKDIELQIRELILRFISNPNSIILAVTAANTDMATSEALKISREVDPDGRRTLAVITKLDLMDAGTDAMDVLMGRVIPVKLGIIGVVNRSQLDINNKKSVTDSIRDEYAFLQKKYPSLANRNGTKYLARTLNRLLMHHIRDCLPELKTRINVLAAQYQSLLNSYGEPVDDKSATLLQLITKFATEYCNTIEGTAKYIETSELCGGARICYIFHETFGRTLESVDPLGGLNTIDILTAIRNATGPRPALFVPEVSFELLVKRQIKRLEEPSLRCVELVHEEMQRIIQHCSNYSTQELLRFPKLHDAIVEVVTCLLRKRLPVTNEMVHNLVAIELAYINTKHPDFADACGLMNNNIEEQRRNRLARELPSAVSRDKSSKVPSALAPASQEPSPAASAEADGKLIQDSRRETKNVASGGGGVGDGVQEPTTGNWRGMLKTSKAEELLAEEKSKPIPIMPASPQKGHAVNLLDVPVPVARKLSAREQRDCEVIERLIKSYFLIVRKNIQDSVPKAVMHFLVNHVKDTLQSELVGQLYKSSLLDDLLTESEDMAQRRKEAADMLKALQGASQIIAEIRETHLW
Drp1-filamin complex, sequence (P21333 whole entry): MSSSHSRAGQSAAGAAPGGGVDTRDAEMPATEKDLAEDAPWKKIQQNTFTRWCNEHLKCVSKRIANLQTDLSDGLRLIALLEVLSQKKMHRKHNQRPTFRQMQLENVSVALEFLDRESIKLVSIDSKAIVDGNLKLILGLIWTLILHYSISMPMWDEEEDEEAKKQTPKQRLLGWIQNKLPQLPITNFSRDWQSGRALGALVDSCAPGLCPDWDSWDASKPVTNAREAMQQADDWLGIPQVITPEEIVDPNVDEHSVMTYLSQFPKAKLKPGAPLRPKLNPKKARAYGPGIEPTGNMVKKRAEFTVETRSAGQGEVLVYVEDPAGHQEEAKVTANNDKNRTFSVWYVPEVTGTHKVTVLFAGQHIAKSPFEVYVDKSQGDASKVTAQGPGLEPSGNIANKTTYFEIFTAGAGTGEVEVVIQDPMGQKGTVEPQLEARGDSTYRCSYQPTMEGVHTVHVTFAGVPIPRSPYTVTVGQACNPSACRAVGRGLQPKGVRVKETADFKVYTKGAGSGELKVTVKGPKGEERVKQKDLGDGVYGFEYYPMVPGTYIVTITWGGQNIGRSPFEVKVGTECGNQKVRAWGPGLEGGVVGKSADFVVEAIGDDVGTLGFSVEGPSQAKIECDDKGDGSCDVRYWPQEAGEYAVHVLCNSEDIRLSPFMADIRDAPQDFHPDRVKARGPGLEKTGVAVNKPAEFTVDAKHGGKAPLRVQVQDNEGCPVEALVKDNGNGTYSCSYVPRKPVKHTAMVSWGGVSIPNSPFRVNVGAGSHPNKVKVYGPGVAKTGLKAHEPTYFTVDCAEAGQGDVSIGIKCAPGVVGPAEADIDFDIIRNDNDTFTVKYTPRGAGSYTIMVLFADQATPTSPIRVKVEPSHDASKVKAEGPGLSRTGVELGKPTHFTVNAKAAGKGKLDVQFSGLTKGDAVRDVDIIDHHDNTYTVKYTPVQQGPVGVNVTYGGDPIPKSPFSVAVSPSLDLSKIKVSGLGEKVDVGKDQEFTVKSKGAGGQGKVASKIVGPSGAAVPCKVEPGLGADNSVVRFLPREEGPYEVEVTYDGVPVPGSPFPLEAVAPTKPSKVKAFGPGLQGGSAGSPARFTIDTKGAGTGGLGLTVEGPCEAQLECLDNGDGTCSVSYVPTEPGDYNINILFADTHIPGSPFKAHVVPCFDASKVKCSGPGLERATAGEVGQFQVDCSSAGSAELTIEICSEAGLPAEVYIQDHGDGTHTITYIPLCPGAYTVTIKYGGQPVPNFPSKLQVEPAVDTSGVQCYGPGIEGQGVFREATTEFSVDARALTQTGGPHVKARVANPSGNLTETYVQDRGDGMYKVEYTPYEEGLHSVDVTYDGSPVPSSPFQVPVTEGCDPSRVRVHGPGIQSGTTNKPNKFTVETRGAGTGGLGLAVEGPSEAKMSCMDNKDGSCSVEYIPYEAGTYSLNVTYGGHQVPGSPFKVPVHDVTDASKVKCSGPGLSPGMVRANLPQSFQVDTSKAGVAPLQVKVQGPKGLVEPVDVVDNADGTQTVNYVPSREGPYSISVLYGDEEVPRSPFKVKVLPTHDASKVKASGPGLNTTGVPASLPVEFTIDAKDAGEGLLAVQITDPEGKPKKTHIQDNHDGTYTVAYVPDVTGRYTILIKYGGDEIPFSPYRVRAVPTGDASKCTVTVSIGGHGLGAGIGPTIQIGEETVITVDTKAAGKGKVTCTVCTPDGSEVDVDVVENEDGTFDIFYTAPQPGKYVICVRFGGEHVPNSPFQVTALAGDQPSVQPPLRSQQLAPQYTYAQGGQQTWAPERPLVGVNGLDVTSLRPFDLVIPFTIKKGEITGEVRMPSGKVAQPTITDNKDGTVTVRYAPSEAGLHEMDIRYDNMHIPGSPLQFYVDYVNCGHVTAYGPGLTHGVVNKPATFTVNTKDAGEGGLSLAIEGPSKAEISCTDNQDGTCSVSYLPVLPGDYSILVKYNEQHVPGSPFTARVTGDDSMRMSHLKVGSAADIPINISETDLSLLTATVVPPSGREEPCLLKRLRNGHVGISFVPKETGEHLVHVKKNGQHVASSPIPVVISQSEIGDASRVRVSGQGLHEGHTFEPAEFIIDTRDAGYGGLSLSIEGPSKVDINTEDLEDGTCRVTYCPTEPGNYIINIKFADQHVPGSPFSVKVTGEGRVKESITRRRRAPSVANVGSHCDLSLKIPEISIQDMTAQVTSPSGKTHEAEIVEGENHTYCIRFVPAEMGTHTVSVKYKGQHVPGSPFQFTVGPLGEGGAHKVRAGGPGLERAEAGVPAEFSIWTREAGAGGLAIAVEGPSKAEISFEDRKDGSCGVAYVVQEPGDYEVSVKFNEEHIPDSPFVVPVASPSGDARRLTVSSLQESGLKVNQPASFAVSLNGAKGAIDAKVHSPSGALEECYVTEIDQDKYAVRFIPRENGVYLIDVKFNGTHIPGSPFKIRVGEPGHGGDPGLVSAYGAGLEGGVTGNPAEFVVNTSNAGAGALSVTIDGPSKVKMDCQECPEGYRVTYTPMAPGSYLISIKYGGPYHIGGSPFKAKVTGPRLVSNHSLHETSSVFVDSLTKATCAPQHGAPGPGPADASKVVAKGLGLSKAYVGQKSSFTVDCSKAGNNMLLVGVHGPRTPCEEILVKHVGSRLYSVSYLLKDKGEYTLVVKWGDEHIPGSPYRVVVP

COCCOC(=O)C1=C(C)NC(C)=C(C(=O)OC/C=C/c2ccccc2)C1c1cccc([N+](=O)[O-])c1 (stereo not drawn) [cilnidipine]
inhibition of formation of the Drp1-filamin complex [1]: inhibits formation of the Drp1-filamin complex
blood sugar level [2]: blood sugar level getting closer to the normal level
percentage of blood HbA1c [3]: significant decrease of HbA1c
survival rate [4]: significant elongation of lifetime
average length of mitochondrial fragments (suppression of mitochondrial division) [5]: could not suppress mitochondrial division
blocking effect on the calcium channel (ΔRatio, increase of intracellular calcium ion concentration) ([6]; Exemplary Experiment 12, 0, 1, 10, 100, and 1,000 nM, 30 minutes, 60 mM potassium chloride, FIG. 12): showed blocking effects exerted on the calcium channel
blocking effect on the calcium channel (ΔRatio) ([6]; Exemplary Experiment 15, at 1000 nM, FIG. 15): showed blocking effects on the calcium channel
average length of mitochondrial fragments (suppression of mitochondrial division) [7]: could not suppress mitochondrial division
survival rate [8]: significant increase of the survival rate
percentage of p53 accumulating cells relative to α-actinin-positive cells (aging of myocardial cell) [9]: suppressive effects over aging of myocardial cell
percentage of cells having vesicular mitochondria (suppression of mitochondrial division) ([10]; Exemplary Experiment 2, 1 μM, hypoxic environment 16 hours, FIG. 3): significantly suppress mitochondrial division
percentage of cells having vesicular mitochondria (suppression of mitochondrial division) ([10]; Exemplary Experiment 11, 1 μM, hypoxic environment 18 hours, FIG. 11): significantly suppress mitochondrial division
